Measurements as given in US9370510B2, “Small molecule compounds to treat hearing loss” (FATE THERAPEUTICS, INC., priority 2012, dated 2016).

Tests used:
Type in all cases: cell-based, rat
[1] = system: hair cell-damaged cochlea/modiolus explants; assay: proliferating supporting cells (BrdU+/Sox2+) in hair cell-damaged cochlea/modiolus explants, confocal microscopy; settings: three days, after 1 mM tobramycin for three days
Procedure: Postnatal day 5 rat cochlea cochlea/modiolus explants were collected and cultured with 1 mM tobramycin for three days to kill hair cells. Cultures were then treated for three days with DMSO, 3 uM bromo benzyl ellipticinium, 60 uM CHIR99021, or both. Tissues were fixed with 4% paraformaldehyde, and cochlea were removed from surrounding tissue and immunostained with anti-SOX2 and anti-BrdU antibodies. Whole mount confocal microscopy was used to identify proliferating supporting cells (Brdu+/Sox2+) counted in 300 um of the basal-most cochlea. Cochlea were analyzed in triplicates per treatment group.

[2] = system: p27; assay: p27 protein levels in hair cell-damaged (tobramycin) cochlear explants by western blot; settings: 3 uM, 24 hours, after 1 mM tobramycin for two days, vs vehicle (DMSO) (FIG. 4)
Procedure: (§1) Postnatal day 5 rat cochlea were collected and cultured with 1 mM tobramycin for two days to kill hair cells. Cultures were then treated with 3 uM bromo benzyl ellipticinium dissolved in DMSO or DMSO alone (negative control) for 24 hours.
(§2) Cochlear explant extracts were analyzed by western blotting. Detergent-solubilized extracts were electrophoresed on a polyacrylamide gel, and the separated denatured proteins transferred to a PVDF membrane. Antibodies to p27, p57, phosphorylated Histone H3, phosphorylated p130 and the house-keeping gene, β-actin were used with infrared dye-conjugated secondary antibodies and quantified by fluorescence. Levels of p27, p57, phosphorylated Histone H3, and phosphorylated p130 were normalized to the beta-actin signal before comparing treated and control samples.

[3] = system: hair cell-damaged cochlear explants; assay: cell proliferation (phosphorylated Histone H3) in hair cell-damaged cochlear explants by western blot; settings: 3 uM, 24 hours, after 1 mM tobramycin for two days, vs vehicle (DMSO) (FIG. 4)
Procedure: as §1, §2

| Structure (SMILES) | BrdU+/Sox2+ ells/300 μm of Basal Cochlea (Mean ± SD, n = 3) ([1]; 60 μM) | p27 protein levels [2] | cell proliferation [3] | BrdU+/Sox2+ ells/300 μm of Basal Cochlea (Mean ± SD, n = 3) ([1]; 3 μM) |
| --- | --- | --- | --- | --- |
| Cc1c[nH]c(-c2cnc(NCCNc3ccc(C#N)cn3)nc2-c2ccc(Cl)cc2Cl)n1 [CHIR99021, reference compound] | 0 ± 0 ells/300 μm |  |  |  |
| Cc1c2cc[n+](Cc3ccccc3)cc2c(C)c2c1[nH]c1ccccc12 [bromo benzyl ellipticinium, Bromo Benzyl Ellipticinium] |  | reduced | increased | 0 ± 0 ells/300 μm |
